The source of these data is patent US20250082598A1, “Melafenoxate, 2-(1-adamantylamino)ethyl 2-(4-chlorophenoxy)acetate and derivatives thereof for treating circadian rhythm sleep disorders with neurodegenerative diseases such as Alzheimer's disease” (NLS Pharmaceutics AG, priority 2021, published 2025).

The target in the experiment is T1, RXFP3 (h) (Homo sapiens, UniProt Q9NSD7).
T1 sequence (Q9NSD7 1-469): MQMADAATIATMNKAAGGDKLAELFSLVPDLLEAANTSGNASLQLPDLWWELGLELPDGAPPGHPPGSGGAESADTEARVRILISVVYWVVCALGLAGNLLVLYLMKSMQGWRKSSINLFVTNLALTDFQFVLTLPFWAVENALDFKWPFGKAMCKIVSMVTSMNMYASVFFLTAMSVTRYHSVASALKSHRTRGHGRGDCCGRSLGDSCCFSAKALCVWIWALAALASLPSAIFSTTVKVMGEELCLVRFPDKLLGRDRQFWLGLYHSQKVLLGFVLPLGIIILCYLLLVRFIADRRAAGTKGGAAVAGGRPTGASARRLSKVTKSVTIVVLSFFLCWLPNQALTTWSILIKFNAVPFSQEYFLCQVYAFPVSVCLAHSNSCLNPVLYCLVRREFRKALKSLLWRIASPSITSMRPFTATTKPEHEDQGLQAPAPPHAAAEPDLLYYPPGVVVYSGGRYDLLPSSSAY
The experiment in a line: RXFP3 assay (Eurofins/LeadHunter, cAMP Hunter GPCR Biosensor). It is filed as cell-based. The procedure: Melafenoxate is found to weakly bind with RXFP3 and RXFP4 receptors (Study FR095-0024749-Q Eurofins/leadHunter Jun. 25, 2021; unpublished data).
In these assays' compounds were tested in agonist and antagonist mode with the GPCR Biosensor Assays and match to this design:
• 1. CAMP Hunter cell lines were expanded from freezer stocks according to standard procedures. • 2. Cells were seeded in a total volume of 20 μL into white walled, 384-well microplates and incubated at 37° C. for the appropriate time prior to testing. • 3. cAMP modulation was determined using the DiscoverX HitHunter CAMP XS+assay.
• 1. For agonist determination, cells were incubated with sample to induce response. • 2. Media was aspirated from cells and replaced with 15 μL 2:1 HBSS/10 mM Hepes: CAMP XS+ Ab reagent. • 3. […]
• 1. […] Microplates were read following signal generation with a PerkinElmer Envision™ instrument for chemiluminescent signal detection.
• 1. Compound activity was analyzed using CBIS data analysis suite (ChemInnovation, CA). • 2. For Gs agonist mode assays, percentage activity is calculated using the following formula:
% Activity=100%×(mean RLU of test sample−mean RLU of vehicle control)/(mean RLU of MAX control−mean RLU of vehicle control). • 3. For Gs positive allosteric mode assays, percentage modulation is calculated using the following formula: http://www.eurofinsdiscoveryservices.com Confidential Jun. […]

`O=C(COc1ccc(Cl)cc1)OCCNC12CC3CC(CC(C3)C1)C2` [Melafenoxate, 2-(1-adamantylamino)ethyl 2-(4-chlorophenoxy)acetate]: the “binding with RXFP3 receptor (in words)” value is recorded as “weakly bind”. Moreover, for the setting “5*10^−5 M”, the “% Inhibition at 5*10^−5 M” value is 29.1%.

Usually % Inhibition stands for the change of the read-out against control, counted positive when it falls.
